Experimental data published in patent US7652037B2, “Methods of lowering lipid levels in a mammal” (City Of Hope, priority 2003, dated 2010).
Marks after values point to notes of the source that are not given here.

What was measured:
Human LDL = assay: Cu++-mediated LDL oxidation, TBARS (Example 16); details: 250 μM compound, followed for 5 hours; control lag phase about 2 hours
Procedure: (§1) Human LDL was isolated from plasma of healthy donors by single vertical spin centrifugation (see Chung et al., Methods Enzymol. 128:181-209, 1986) and used within 24-48 hours of preparation. LDL (50 μg/mL) was incubated at 37° C. in 50 mM chelex-treated phosphate buffer, pH 7.4, alone or in the presence of 5 μM CuCl2 or 5 μM CuCl2 plus various concentrations of the LR compounds. After 5 hours of incubation, aliquots from each reaction mixture were removed for measurement of thiobarbituric acid-reacting substances (TBARS) as described in Satoh, Clin. Chim. Acta 90:37-43, 1978. Briefly, 250 μL of 20% trichloroacetic acid was added to 500 μL of sample aliquot, followed by 750 μL of 1% […]. The samples then were vortexed and incubated in a boiling water bath for 10 minutes. Upon cooling, the samples were centrifuged for 5 minutes at 5000 rpm. Absorbance of the supernatant was taken at 532 nm, and expressed as MDA equivalents using 1,1,3,3-tetramethoxypropane as standards. For fatty acid oxidation studies, linoleic acid (5#mM) was incubated alone or in the presence of 1 mM LR compound in […] phosphate buffer, pH 7.4, for 7 days at 37° C. Aliquots from each reaction mixture were withdrawn periodically for measurement of TBARS as described above.
Results are shown in FIG. 23A, where values are provided as means±SD of two independent experiments (n=4 for each treatment). In separate experiments, the time course for the oxidative modification fo LDL by Cu^++ in the presence of 250 μM compound was followed for 5 hours and aliquots for each time interval were assayed for TBARS. Values in FIG. 23B are means±SD of two independent experiments (n=4 per treatment).

STZ-Diabetic Rats [1] = assay: Renal function parameters in STZ-diabetic rats (Example 3); assay type: in vivo, rat; details: for Plasma Creatine / Urinary Albumin / Urinary Albumin/Creatine Ratio: mean ± SD; for decrease of elevated plasma creatinine concentrations: diabetic rats
Procedure: (§2) Male Sprague-Dawley rats (about 175 to 200 g) were adapted for one week prior to treatment, then rendered diabetic by intra-peritoneal injection of STZ (65 mg/kg in citrate buffer, pH 4.5) after an overnight fast. Control (non-diabetic) animals were injected with the buffer only. Diabetes was confirmed by measuring the plasma glucose concentrations 7 days after Streptozotocin (STZ)-injection. Only animals with a plasma glucose concentration greater than 20 mmol were classified as diabetic and used in the study. These diabetic rats were divided randomly into an untreated diabetic control group and a diabetic treatment group. The treatment group received an LR compound at 50 mg/l in their drinking water throughout the duration of the study (32 weeks for LR-90; 30 weeks for LR-9 and LR-74). All animals were housed individually and were given free access to food and water.
(§3) Blood (from the tail vein) and urine samples were collected from rats for glycemic control analysis and albuminuria measurements. Glycemia was monitored every 8 weeks by measuring plasma glucose and glycated hemoglobin. Plasma or serum also was tested for total cholesterol and total triglycerides. Progression of renal dysfunction was assessed by measuring urinary albumin to creatinine ratio (UA/Cr) and serum or plasma creatinine. For measurement of urinary albumin and creatinine concentrations, rats were housed in metabolic cages for 24 hours and urine was collected in a collection beaker with several drops of toluene to inhibit microbial growth.
Urinary albumin, plasma creatinine concentration, and urinary albumin/creatine ratio (UA/Cr) were used as indicators of renal function.

[2] = Inhibition of copper-catalyzed oxidation of ascorbic acid (Cu2+ chelating activity); details: 500 nmol/L CuCl2, 500 μmol/L ascorbic acid, phosphate buffer pH 7.4, 60 minutes; read-out: IC50, concentration that inhibited the rate of AA oxidation by 50%
Procedure: In vitro measurement of the kinetics of inhibition of copper-catalyzed oxidation of ascorbic acid was performed according to the methods of Price et al., J. Biol. Chem. 276:48967-48972, 2001. Briefly, CuCl2 and various concentrations of inhibitor compounds were pre-incubated in chelex-treated 20 mmol/L phosphate buffer, pH 7.4, for 5 minutes. Ascorbic acid then was added (50 μL of 10 mmol/L in water) to initiate the reaction (1 mL total reaction volume). The final concentrations of CuCl2 and ascorbic acid in the reaction were 500 nmol/L and 500 μmol/L, respectively. Aliquots (135 μL) were removed at 0 and 60 minutes and transferred to autoinjector vials containing 15 μL of 10 mmol/l DTPA. Samples were analyzed by reversed phase HPLC on an XTerra™ RP18 column (250 mm×4.6 mm, 5 μm) with an XTerra™ RP18 5 μm guard column using a Waters® 2690 Separator Module equipped with auto-injector and Millenium® 32 software. Solvents and gradient were all used as described in Dillon et al., Life Sci. 72:1583-1594, 2003. The absorbance of ascorbic acid was measured at 244 nm and the peak area was obtained to estimate the percent of ascorbic acid remaining versus time. For each inhibitor compound, the concentration that inhibited the rate of AA oxidation by 50% (IC50), was calculated with respect to the control using Prism™ software.

STZ-Diabetic Rats [3] = assay: Body weight and glycemia in STZ-diabetic and control rats (Example 1); assay type: in vivo, rat; details: for Body Weight / HbA1c / Plasma Glucose: mean ± SD; for effect on plasma glucose and glycated hemoglobin / weight compared to the diabetic control rats: diabetic rats; for weight compared to the diabetic control rats: only LR-90 statistically significant
Procedure: as §2, §3
At the end of study, the rats were weighed and anaesthetized with isoflourane and blood was drawn by heart puncture and transferred into heparinized and non-heparinized vacutainer tubes on ice. These blood samples were later centifuged for plasma and serum collection respectively, and stored at −70° C. until the time of analysis. Rats were killed by over-anesthetization and cardiac puncture and the kidneys were removed immediately, weighed, decapsulated and rinsed in PBS buffer. Sections of the kidneys were stored in 10% NBF for subsequent microscopic examinations and immunohistochemistry. The tail of each individual rat was cut, removed and stored in 50 mL conical tubes at −70° C.
Statistical analyses of data presented in this example and the following examples were first analyzed by ANOVA and post-hoc comparisons between group means were analyzed using unpaired Student's t test. A p value of less than 0.05 was considered statistically significant. Data are presented as means±SD.

[4] = Kinetics of linoleic acid oxidation, TBARS; details: 5 mM linoleic acid, 1 mM compound, pH 7.4, 7 days at 37° C.
Procedure: as §1
Aliquots were withdrawn periodically and assayed by the TBARS method as above. The MDA equivalent was estimated based on standards.

[5] = STZ-diabetic (D) rats, 30 weeks
[6] = non-diabetic (ND) rats, 30 weeks
[7] = STZ-diabetic (D) rats, 50 mg/l in drinking water, 30 weeks
[8] = non-diabetic (ND) rats, 50 mg/l in drinking water, 30 weeks
[9] = STZ-diabetic (D) rats, LR-90, 32 weeks
[10] = non-diabetic (ND) rats, LR-90, 32 weeks
[11] = STZ-diabetic (D) rats, LR-90 50 mg/l in drinking water, 32 weeks
[12] = non-diabetic (ND) rats, LR-90 50 mg/l in drinking water, 32 weeks

Row | Molecule | time course of Cu++-mediated oxidation of LDL (Human LDL) | Plasma Creatine (STZ-Diabetic Rats [1]; [5]) | Urinary Albumin (STZ-Diabetic Rats [1]; [5]) | Urinary Albumin/Creatine Ratio (STZ-Diabetic Rats [1]; [5]) | decrease of elevated plasma creatinine concentrations (STZ-Diabetic Rats [1]) [%] | Plasma Creatine (STZ-Diabetic Rats [1]; [6]) [mg/dL] | Urinary Albumin (STZ-Diabetic Rats [1]; [6]) [mg/24 hr] | Urinary Albumin/Creatine Ratio (STZ-Diabetic Rats [1]; [6]) | IC50 [2] [µM] | Body Weight (STZ-Diabetic Rats [3]; [7]) [g] | HbA1c (STZ-Diabetic Rats [3]; [7]) | Plasma Glucose (STZ-Diabetic Rats [3]; [7]) [mmol/L] | effect on plasma glucose and glycated hemoglobin (STZ-Diabetic Rats [3]; 50 mg/l in drinking water) | weight compared to the diabetic control rats (STZ-Diabetic Rats [3]; 50 mg/l in drinking water) | Body Weight (STZ-Diabetic Rats [3]; [8]) [g] | HbA1c (STZ-Diabetic Rats [3]; [8]) [%] | Plasma Glucose (STZ-Diabetic Rats [3]; [8]) [mmol/L] | linoleic acid (LA) oxidation, MDA equivalents [4] | also measured
1 | CC(C)(Oc1ccc(NC(=O)c2ccc3ccccc3c2)cc1)C(=O)O [LR-9, 4-(2-napthylcarboxamido) phenoxyisobutyric acid] | significantly inhibited the rate of oxidation after 2 hours | 1.79 ± 0.95^c mg/dl | 18.0 ± 9.1^c mg/24 hr | 1.36 ± 0.93^c | ~50 | 0.42 ± 0.02 | 4.8 ± 2.3 | 0.33 ± 0.13 | 200 | 288.0 ± 71.8 | 1.95 ± 0.22^b % | 27.1 ± 1.3 | did not affect | moderate increase in weight | 681.0 ± 9.3 | 0.90 ± 0.08 | 8.2 ± 0.9 | totally prevented LA oxidation | 
2 | methylene bis(4,4′-(2-chlorophenylureidophenoxyisobutyric acid) [LR-90] | no observable propagation phase |  |  |  | ~50 |  |  |  | 275 |  |  |  | did not affect | moderate increase in weight |  |  |  | totally prevented LA oxidation | Plasma Creatine (STZ-Diabetic Rats [1]; [9]): 1.50 ± 0.53^c mg/dl; Urinary Albumin (STZ-Diabetic Rats [1]; [9]): 23.6 ± 4.5^c mg/24 hr; Urinary Albumin/Creatine Ratio (STZ-Diabetic Rats [1]; [9]): 1.57 ± 0.49^c; Plasma Creatine (STZ-Diabetic Rats [1]; [10]): 0.58 ± 0.07 mg/dL; Urinary Albumin (STZ-Diabetic Rats [1]; [10]): 8.9 ± 1.5 mg/24 hr; Urinary Albumin/Creatine Ratio (STZ-Diabetic Rats [1]; [10]): 0.57 ± 0.16; Body Weight (STZ-Diabetic Rats [3]; [11]): 337.6 ± 26.6^c g; HbA1c (STZ-Diabetic Rats [3]; [11]): 3.3 ± 0.4%; Plasma Glucose (STZ-Diabetic Rats [3]; [11]): 28.9 ± 3.4 mmol/L; Body Weight (STZ-Diabetic Rats [3]; [12]): 723.0 ± 21.9 g; HbA1c (STZ-Diabetic Rats [3]; [12]): 1.5 ± 0.1%; Plasma Glucose (STZ-Diabetic Rats [3]; [12]): 6.8 ± 0.7 mmol/L
3 | CC(Oc1cccc2cccnc12)C(=O)O (stereo not drawn) [LR-74, 2-(8-quinolinoxy) propionic acid] | no observable propagation phase | 1.64 ± 1.07^c mg/dl | 14.3 ± 9.07^c mg/24 hr | 1.23 ± 0.60^c | ~50 | 0.42 ± 0.05 | 4.6 ± 2.4 | 0.30 ± 0.16 | 50 | 314.7 ± 53.0 | 2.10 ± 0.30% | 26.9 ± 1.5 | did not affect | moderate increase in weight | 744.0 ± 51.8 | 0.87 ± 0.12 | 6.8 ± 0.8 | did not totally prevent the oxidation | 
